Key:
Assay type in all cases: cell-based
K-562 = assay: NCI 60 antitumor screening (single dose / five doses); settings: Homo sapiens, K562; for inhibition at 10 µM: K-562 (leukaemia), single dose 10 μM, read-out: Growth inhibition percentage (GI %)
SR = assay: as above; settings: Homo sapiens; for inhibition at 10 µM: SR (leukaemia), single dose 10 μM, read-out: Growth inhibition percentage (GI %)
EKVX = assay: as above; settings: Homo sapiens; for inhibition at 10 µM: EKVX (non-small cell lung cancer), single dose 10 μM, read-out: Growth inhibition percentage (GI %)
HCC-2998 = assay: NCI 60 antitumor screening (single dose); settings: Homo sapiens; HCC-2998 (colon cancer), single dose 10 μM; read-out: Growth inhibition percentage (GI %)
Method in brief: (§1)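 NCI-60 one-dose screen. Dose: 10 μM. Lines: 60 human tumour lines, nine tissue types. Output: GI% = 100 − G%.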

HOP-62 = assay: NCI 60 antitumor screening (single dose); settings: Homo sapiens; HOP-62 (non-small cell lung cancer), single dose 10 μM; read-out: Growth inhibition percentage (GI %)
Method in brief: as §1

HS 578T = assay: NCI 60 antitumor screening (single dose); settings: Homo sapiens; HS 578T (breast cancer), single dose 10 μM; read-out: Growth inhibition percentage (GI %)
Method in brief: (§2)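 Test compound added at 10 μM to each of 60 human cancer lines from nine tumour types; growth measured per NCI protocol in triplicate; percent growth converted to inhibition (100 − G%).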

KM 12 = assay: NCI 60 antitumor screening (single dose); settings: Homo sapiens, KM12; KM 12 (colon cancer), single dose 10 μM; read-out: Growth inhibition percentage (GI %)
Method in brief: as §2

NCI-H226 = assay: NCI 60 antitumor screening (single dose); settings: Homo sapiens; NCI-H226 (non-small cell lung cancer), single dose 10 μM; read-out: Growth inhibition percentage (GI %)
Method in brief: as §2

NCI-H460 = assay: NCI 60 antitumor screening (single dose); settings: Homo sapiens; NCI-H460 (non-small cell lung cancer), single dose 10 μM; read-out: Growth inhibition percentage (GI %)
Method in brief: as §1

OVCAR-3 = assay: NCI 60 antitumor screening (single dose); settings: Homo sapiens; OVCAR-3 (ovarian cancer), single dose 10 μM; read-out: Growth inhibition percentage (GI %)
Method in brief: as §2

OVCAR-4 = assay: NCI 60 antitumor screening (single dose); settings: Homo sapiens; OVCAR-4 (ovarian cancer), single dose 10 μM; read-out: Growth inhibition percentage (GI %)
Method in brief: as §2

OVCAR-5 = assay: NCI 60 antitumor screening (single dose); settings: Homo sapiens; OVCAR-5 (ovarian cancer), single dose 10 μM; read-out: Growth inhibition percentage (GI %)
Method in brief: as §1

OVCAR-8 = assay: NCI 60 antitumor screening (single dose); settings: Homo sapiens; OVCAR-8 (ovarian cancer), single dose 10 μM; read-out: Growth inhibition percentage (GI %)
Method in brief: as §2

PC-3 = assay: NCI 60 antitumor screening (single dose); settings: Homo sapiens; PC-3 (prostate cancer), single dose 10 μM; read-out: Growth inhibition percentage (GI %)
Method in brief: as §2

SK-OV-3 = assay: NCI 60 antitumor screening (single dose); settings: Homo sapiens; SK-OV-3 (ovarian cancer), single dose 10 μM; read-out: Growth inhibition percentage (GI %)
Method in brief: as §1

SNB-19 = assay: NCI 60 antitumor screening (single dose); settings: Homo sapiens; SNB-19 (CNS cancer), single dose 10 μM; read-out: Growth inhibition percentage (GI %)
Method in brief: as §2

TK-10 = assay: NCI 60 antitumor screening (single dose); settings: Homo sapiens; TK-10 (renal cancer), single dose 10 μM; read-out: Growth inhibition percentage (GI %)
Method in brief: as §2

U251 = assay: NCI 60 antitumor screening (single dose); settings: Homo sapiens, U-251; U251 (CNS cancer), single dose 10 μM; read-out: Growth inhibition percentage (GI %)
Method in brief: as §1

COLO 205 = assay: NCI 60 antitumor screening (single dose / five doses); settings: Homo sapiens; for inhibition at 10 µM: COLO 205 (colon cancer), single dose 10 μM, read-out: Growth inhibition percentage (GI %)
HCT-116 = assay: as above; settings: Homo sapiens; for inhibition at 10 µM: HCT-116 (colon cancer), single dose 10 μM, read-out: Growth inhibition percentage (GI %)
SF-295 = assay: as above; settings: Homo sapiens; for inhibition at 10 µM: SF-295 (CNS cancer), single dose 10 μM, read-out: Growth inhibition percentage (GI %)
LOX IMVI = assay: as above; settings: Homo sapiens; for inhibition at 10 µM: LOX IMVI (melanoma), single dose 10 μM, read-out: Growth inhibition percentage (GI %)
SK-MEL-2 = assay: as above; settings: Homo sapiens; for inhibition at 10 µM: SK-MEL-2 (melanoma), single dose 10 μM, read-out: Growth inhibition percentage (GI %)
UACC-257 = assay: as above; settings: Homo sapiens; for inhibition at 10 µM: UACC-257 (melanoma), single dose 10 μM, read-out: Growth inhibition percentage (GI %)
IGROV1 = assay: as above; settings: Homo sapiens, IGROV-1; for inhibition at 10 µM: IGROV1 (ovarian cancer), single dose 10 μM, read-out: Growth inhibition percentage (GI %)
ACHN = assay: as above; settings: Homo sapiens; for inhibition at 10 µM: ACHN (renal cancer), single dose 10 μM, read-out: Growth inhibition percentage (GI %)
SN 12C = assay: as above; settings: Homo sapiens, SN12C; for inhibition at 10 µM: SN 12C (renal cancer), single dose 10 μM, read-out: Growth inhibition percentage (GI %)
T-47D = assay: as above; settings: Homo sapiens, T47D; for inhibition at 10 µM: T-47D (breast cancer), single dose 10 μM, read-out: Growth inhibition percentage (GI %)

Structure (SMILES): CN(C)c1ccc(/C=N/Nc2nc(N/N=C/c3ccc(N(C)C)cc3)nc(N3CCCCC3)n2)cc1 [compound 7g, 4-[(1e)-(2-{4-[(E)-2-{[4-(dimethylamino)phenyl]methylidene}chydrazin-1-yl]-6-(piperidin-1-yl)-1,3,5-triazin-2-yl}hydrazin-1-ylidene)methyl]-N,N-dimethylaniline]
- inhibition at 10 µM (K-562): 96.9%
- GI50 (K-562; K-562, five doses (0.01–100 μM), read-out: GI50): 890 nM
- inhibition at 10 µM (SR): 114%
- GI50 (SR; SR, five doses (0.01–100 μM), read-out: GI50): 360 nM
- inhibition at 10 µM (EKVX): 2.99%
- GI50 (EKVX; EKVX, five doses (0.01–100 μM), read-out: GI50): 3130 nM
- inhibition at 10 µM (HCC-2998): -3.1%
- inhibition at 10 µM (HOP-62): 18.2%
- inhibition at 10 µM (HS 578T): -6.05%
- inhibition at 10 µM (KM 12): 6.98%
- inhibition at 10 µM (NCI-H226): -1.93%
- inhibition at 10 µM (NCI-H460): 29.1%
- inhibition at 10 µM (OVCAR-3): 34.4%
- inhibition at 10 µM (OVCAR-4): -6.05%
- inhibition at 10 µM (OVCAR-5): 3.87%
- inhibition at 10 µM (OVCAR-8): 43.4%
- inhibition at 10 µM (PC-3): 15.2%
- inhibition at 10 µM (SK-OV-3): -31.8%
- inhibition at 10 µM (SNB-19): 13.9%
- inhibition at 10 µM (TK-10): -18.4%
- inhibition at 10 µM (U251): 50%
- inhibition at 10 µM (COLO 205): 16.5%
- GI50 (COLO 205; COLO 205, five doses (0.01–100 μM), read-out: GI50): 1890 nM
- inhibition at 10 µM (HCT-116): 85.1%
- GI50 (HCT-116; HCT-116, five doses (0.01–100 μM), read-out: GI50): 1640 nM
- inhibition at 10 µM (SF-295): -6.74%
- GI50 (SF-295; SF-295, five doses (0.01–100 μM), read-out: GI50): 1960 nM
- inhibition at 10 µM (LOX IMVI): 173%
- GI50 (LOX IMVI; LOX IMVI, five doses (0.01–100 μM), read-out: GI50): 1610 nM
- inhibition at 10 µM (SK-MEL-2): -10.8%
- GI50 (SK-MEL-2; SK-MEL-2, five doses (0.01–100 μM)): 1990 nM
- inhibition at 10 µM (UACC-257): -4.45%
- GI50 (UACC-257; UACC-257, five doses (0.01–100 μM), read-out: GI50): 1830 nM
- inhibition at 10 µM (IGROV1): 6.23%
- GI50 (IGROV1; IGROV1, five doses (0.01–100 μM), read-out: GI50): 2960 nM
- inhibition at 10 µM (ACHN): 67.6%
- GI50 (ACHN; ACHN, five doses (0.01–100 μM), read-out: GI50): 2680 nM
- inhibition at 10 µM (SN 12C): 49.6%
- GI50 (SN 12C; SN 12C, five doses (0.01–100 μM), read-out: GI50): 1870 nM
- inhibition at 10 µM (T-47D): 54%
- GI50 (T-47D; T-47D, five doses (0.01–100 μM), read-out: GI50): 2180 nM

Structure (SMILES): Clc1cccc(/C=N/Nc2nc(N/N=C/c3cccc(Cl)c3Cl)nc(N3CCCCC3)n2)c1Cl [compound 7h, 2,4-Bis[(E)-2-[(2,3-Dichlorophenyl)methylidene]hydrazin-1-yl]-6-(piperidin-1-yl)-1,3,5-triazine]
- inhibition at 10 µM (K-562): 21.9%
- inhibition at 10 µM (SR): 66.6%
- inhibition at 10 µM (EKVX): 11%
- inhibition at 10 µM (HCC-2998): 2.64%
- inhibition at 10 µM (HOP-62): 1.81%
- inhibition at 10 µM (HS 578T): 15%
- inhibition at 10 µM (KM 12): 32.8%
- inhibition at 10 µM (NCI-H226): 2.51%
- inhibition at 10 µM (NCI-H460): 66.2%
- inhibition at 10 µM (OVCAR-3): 91.8%
- inhibition at 10 µM (OVCAR-4): 28.6%
- inhibition at 10 µM (OVCAR-5): 6.05%
- inhibition at 10 µM (OVCAR-8): 27.1%
- inhibition at 10 µM (PC-3): 29.9%
- inhibition at 10 µM (SK-OV-3): -5.17%
- inhibition at 10 µM (SNB-19): 4.59%
- inhibition at 10 µM (TK-10): 8.78%
- inhibition at 10 µM (U251): 47.1%
- inhibition at 10 µM (COLO 205): 9.72%
- inhibition at 10 µM (HCT-116): 51.2%
- inhibition at 10 µM (SF-295): 7.34%
- inhibition at 10 µM (LOX IMVI): 31.7%
- inhibition at 10 µM (SK-MEL-2): 2.27%
- inhibition at 10 µM (UACC-257): 10.2%
- inhibition at 10 µM (IGROV1): 20.4%
- inhibition at 10 µM (ACHN): 16.3%
- inhibition at 10 µM (SN 12C): 19.3%
- inhibition at 10 µM (T-47D): 51.7%
